From US10770169B2, “Method of providing a treatment to a subject based on a dynamic pathway map” (THE REGENTS OF THE UNIVERSITY OF CALIFORNIA, priority 2010, dated 2020)
Where two headings read alike, the source gives them in different places.

What was measured:
[1] = test system: panel of 55 breast cancer cell lines; experiment: Cell growth inhibition assay (Cell Titer Glo, 72 h, 9 doses; GI50, TGI, LC50); type: cell-based, human; settings: Homo sapiens, read-out: GI50 (converted)
[2] = test system: luminal, basal, claudin-low and ERBB2AMP breast cancer cell lines; experiment: Associations of clinically relevant subtypes and response (non-parametric ANOVA or t-test on GI50 ranks); type: cell-based, human
Outline: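 Significance was set at FDR p<0.20 after combining p-values across three test sets. Subtype–response associations came from rank-based non-parametric ANOVA or t-tests on GI50. For three-class comparisons, post-hoc tests of each group against the rest identified the most sensitive group, with FDR correction.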

Q: Which GI50 ([1]; 600MPE cell line, censored GI50 values) does the source give for `COc1cc([C@@H]2c3cc4c(cc3[C@@H](O[C@@H]3O[C@@H]5CO[C@@H](C)O[C@H]5[C@H](O)[C@H]3O)[C@H]3COC(=O)[C@H]23)OCO4)cc(OC)c1O` [Etoposide] here?
A: 9.77 µM

Q: What about the GI50 ([1]; AU565, AU565 cell line, censored GI50 values) of the same molecule?
A: 0.676 µM

Q: And the GI50 ([1]; AU565, cell line AU565)?
A: 0.676 µM

Q: And the GI50 ([1]; BT-20, BT20 cell line, censored GI50 values)?
A: 3.31 µM

Q: What about the GI50 ([1]; BT-20, cell line BT20) of the same molecule?
A: 3.31 µM

Q: And the GI50 ([1]; BT-474, BT474 cell line, censored GI50 values)?
A: 19.1 µM

Q: And the GI50 ([1]; BT-474, cell line BT474)?
A: 19.1 µM

Q: What about the GI50 ([1]; BT-483, BT483 cell line, censored GI50 values) of the same molecule?
A: 4.27 µM

Q: What about the GI50 ([1]; BT-483, cell line BT483) of the same molecule?
A: 4.27 µM

Q: And the GI50 ([1]; BT-549, BT549 cell line, censored GI50 values)?
A: 1.38 µM

Q: And the GI50 ([1]; BT-549, cell line BT549)?
A: 1.38 µM

Q: And the GI50 ([1]; CAMA-1, CAMA1 cell line, censored GI50 values)?
A: 5.01 µM

Q: And the GI50 ([1]; CAMA-1, cell line CAMA1)?
A: 5.01 µM

Q: What about the GI50 ([1]; HCC38, HCC38 cell line, censored GI50 values) of the same molecule?
A: 0.295 µM

Q: What about the GI50 ([1]; HCC38, cell line HCC38) of the same molecule?
A: 0.295 µM

Q: And the GI50 ([1]; HCC70, HCC70 cell line, censored GI50 values)?
A: 12.9 µM

Q: And the GI50 ([1]; HCC70, cell line HCC70)?
A: 12.9 µM

Q: And the GI50 ([1]; HCC202, HCC202 cell line, censored GI50 values)?
A: 0.933 µM

Q: What about the GI50 ([1]; HCC202, cell line HCC202) of the same molecule?
A: 0.933 µM

Q: And the GI50 ([1]; HCC1143, HCC1143 cell line, censored GI50 values)?
A: 5.13 µM

Q: What about the GI50 ([1]; HCC1143, cell line HCC1143) of the same molecule?
A: 5.13 µM

Q: What about the GI50 ([1]; HCC1187, HCC1187 cell line, censored GI50 values) of the same molecule?
A: 0.692 µM

Q: And the GI50 ([1]; HCC1187, cell line HCC1187)?
A: 0.692 µM

Q: What about the GI50 ([1]; HCC1395, HCC1395 cell line, censored GI50 values) of the same molecule?
A: 3.09 µM

Q: What about the GI50 ([1]; HCC1395, cell line HCC1395) of the same molecule?
A: 3.09 µM

Q: What about the GI50 ([1]; HCC1419, HCC1419 cell line, censored GI50 values) of the same molecule?
A: 70.8 µM

Q: And the GI50 ([1]; HCC1419, cell line HCC1419)?
A: 70.8 µM

Q: What about the GI50 ([1]; HCC1428, HCC1428 cell line, censored GI50 values) of the same molecule?
A: 34.7 µM

Q: What about the GI50 ([1]; HCC1428, cell line HCC1428) of the same molecule?
A: 34.7 µM

Q: What about the GI50 ([1]; HCC1500, HCC1500 cell line, censored GI50 values) of the same molecule?
A: 1.41 µM

Q: And the GI50 ([1]; HCC1500, cell line HCC1500)?
A: 1.41 µM

Q: What about the GI50 ([1]; HCC1806, HCC1806 cell line, censored GI50 values) of the same molecule?
A: 3.09 µM

Q: What about the GI50 ([1]; HCC1806, cell line HCC1806) of the same molecule?
A: 3.09 µM

Q: And the GI50 ([1]; HCC1937, HCC1937 cell line, censored GI50 values)?
A: 4.57 µM

Q: What about the GI50 ([1]; HCC1937, cell line HCC1937) of the same molecule?
A: 4.57 µM

Q: And the GI50 ([1]; HCC1954, HCC1954 cell line, censored GI50 values)?
A: 1 µM

Q: What about the GI50 ([1]; HCC1954, cell line HCC1954) of the same molecule?
A: 1 µM

Q: And the GI50 ([1]; HCC2185 cell line, censored GI50 values)?
A: 7.76 µM

Q: And the GI50 ([1]; HCC3153 cell line, censored GI50 values)?
A: 2.95 µM

Q: And the GI50 ([1]; MCF7, MCF7 cell line, censored GI50 values)?
A: 11.2 µM

Q: And the GI50 ([1]; MCF7, cell line MCF7)?
A: 11.2 µM

Q: What about the GI50 ([1]; MDA-MB-134-VI, MDAMB134VI cell line, censored GI50 values) of the same molecule?
A: 2.45 µM

Q: And the GI50 ([1]; MDA-MB-157, MDAMB157 cell line, censored GI50 values)?
A: 0.955 µM

Q: And the GI50 ([1]; MDA-MB-157, cell line MDAMB157)?
A: 0.955 µM

Q: And the GI50 ([1]; MDA-MB-175-VII, MDAMB175VII cell line, censored GI50 values)?
A: 72.4 µM

Q: What about the GI50 ([1]; MDA-MB-231, MDAMB231 cell line, censored GI50 values) of the same molecule?
A: 2.04 µM

Q: What about the GI50 ([1]; MDA-MB-231, cell line MDAMB231) of the same molecule?
A: 2.04 µM

Q: And the GI50 ([1]; MDA-MB-361, MDAMB361 cell line, censored GI50 values)?
A: 14.1 µM

Q: What about the GI50 ([1]; MDA-MB-361, cell line MDAMB361) of the same molecule?
A: 14.1 µM

Q: What about the GI50 ([1]; MDA-MB-415, MDAMB415 cell line, censored GI50 values) of the same molecule?
A: 13.8 µM

Q: And the GI50 ([1]; MDA-MB-415, cell line MDAMB415)?
A: 13.8 µM

Q: What about the GI50 ([1]; MDA-MB-436, MDAMB436 cell line, censored GI50 values) of the same molecule?
A: 1 µM

Q: And the GI50 ([1]; MDA-MB-436, cell line MDAMB436)?
A: 1 µM

Q: And the GI50 ([1]; MDA-MB-453, MDAMB453 cell line, censored GI50 values)?
A: 5.01 µM

Q: And the GI50 ([1]; MDA-MB-453, cell line MDAMB453)?
A: 5.01 µM

Q: What about the GI50 ([1]; MDA-MB-468, MDAMB468 cell line, censored GI50 values) of the same molecule?
A: 2.57 µM

Q: And the GI50 ([1]; MDA-MB-468, cell line MDAMB468)?
A: 2.57 µM

Q: What about the GI50 ([1]; SK-BR-3, SKBR3 cell line, censored GI50 values) of the same molecule?
A: 1.2 µM

Q: What about the GI50 ([1]; SK-BR-3, cell line SKBR3) of the same molecule?
A: 1.2 µM

Q: What about the GI50 ([1]; SUM52PE, SUM52PE cell line, censored GI50 values) of the same molecule?
A: 2.57 µM

Q: And the GI50 ([1]; SUM52PE, cell line SUM52PE)?
A: 2.57 µM

Q: And the GI50 ([1]; SUM149PT, SUM149PT cell line, censored GI50 values)?
A: 2.63 µM

Q: What about the GI50 ([1]; SUM149PT, cell line SUM149PT) of the same molecule?
A: 2.63 µM

Q: And the GI50 ([1]; SUM185PE, SUM185PE cell line, censored GI50 values)?
A: 4.9 µM

Q: What about the GI50 ([1]; SUM185PE, cell line SUM185PE) of the same molecule?
A: 4.9 µM

Q: What about the GI50 ([1]; SUM225CWN, SUM225CWN cell line, censored GI50 values) of the same molecule?
A: 10.2 µM

Q: What about the GI50 ([1]; SUM225CWN, cell line SUM225CWN) of the same molecule?
A: 10.2 µM

Q: What about the GI50 ([1]; SUM1315MO2, SUM1315MO2 cell line, censored GI50 values) of the same molecule?
A: 0.288 µM

Q: What about the GI50 ([1]; SUM-159-PT, SUM159PT cell line, censored GI50 values) of the same molecule?
A: 0.776 µM

Q: And the GI50 ([1]; SUM-159-PT, cell line SUM159PT)?
A: 0.776 µM

Q: What about the GI50 ([1]; T47D, T47D cell line, censored GI50 values) of the same molecule?
A: 1.07 µM

Q: And the GI50 ([1]; T47D, cell line T47D)?
A: 1.07 µM

Q: And the GI50 ([1]; UACC-893, UACC893 cell line, censored GI50 values)?
A: 55 µM

Q: What about the GI50 ([1]; UACC-893, cell line UACC893) of the same molecule?
A: 55 µM

Q: And the GI50 ([1]; ZR-75-1, ZR751 cell line, censored GI50 values)?
A: 2.09 µM

Q: And the GI50 ([1]; ZR-75-1, cell line ZR751)?
A: 2.09 µM

Q: And the GI50 ([1]; ZR-75B, ZR75B cell line, censored GI50 values)?
A: 0.871 µM

Q: What about the GI50 ([1]; ZR-75B, cell line ZR75B) of the same molecule?
A: 0.871 µM

Q: And the GI50 ([1]; cell line 600MPE)?
A: 9.77 µM

Q: What about the GI50 ([1]; cell line HCC2185) of the same molecule?
A: 7.76 µM

Q: And the GI50 ([1]; cell line HCC3153)?
A: 2.95 µM

Q: And the GI50 ([1]; cell line MDAMB134V)?
A: 2.45 µM

Q: And the GI50 ([1]; cell line MDAMB175V)?
A: 72.4 µM

Q: What about the GI50 ([1]; cell line SUM1315MO) of the same molecule?
A: 0.288 µM

Q: And the “subtype-specific response (sensitivity by transcriptional subtype)” value ([2]; GI50 across subtypes)?
A: preferential activity in basal and/or claudin-low cell lines

Q: And the Subtype specificity ([2]; Table 6, most sensitive subtype, FDR p<0.20)?
A: Claudin-low
